PMC10278063 (ACS Chemical Biology, 2023)
“And” between values parts separate entries of the source, which are not always exact repeats. Equal values may be shown once. No end group written: not given here. *: point of attachment. ClAc = O=C(CCl)*

Test system: PSMD2
Type: binding, human

Substance | ELISA S/N | PSMD2 binding compared with MC3
ClAc-FRRNVNWWRLYC (also: sidechain bridge or staple (positions not given here)) [hit 5] | > 30 | equivalent or better binding
ClAc-FSRNAGFWARYC (also: sidechain bridge or staple (positions not given here)) [hit 3] | 49.0 and > 30 | equivalent or better binding
ClAc-FSALRHIAIFRYC (also: sidechain bridge or staple (positions not given here)) [hit 2] | > 30 | equivalent or better binding
